These results are taken from ChEMBL document CHEMBL5149985, “Discovery of cytotoxic natural products from Red Sea sponges: Structure and synthesis” (Eur J Med Chem, 2021).

A value given as a limit tells only on which side of the number the result lay.

One test concerns OVCAR-3. The test is described as follows: Anticancer activity against human OVCAR-3 cells assessed as cell growth inhibition by crystal violet staining based assay. The test is classed as functional.
Test [1] deals with HT-29. In words: Anticancer activity against human HT-29 cells assessed as cell growth inhibition by crystal violet staining based assay. The test is classed as functional.
The next test relates to MM1.S. The test is described as follows: Anticancer activity against human MM1.S cells assessed as cell growth inhibition by MTT assay. The test is classed as functional, cell-based. In general terms: Tetrazolium dyes change colour on reduction, which living cells bring about.
The test system of test [2] is MCF7. In words: Anticancer activity against human MCF7 cells assessed as inhibition of cell growth incubated for 72 hrs by MTT assay. To be noted: MCF7, 72 h. The format is functional, cell-based.
Test [3] in a line: Inhibition of actin (unknown origin) polymerization at 100 nM incubated for 20 mins in presence of ATP by ELISA analysis relative to control. To be noted: Homo sapiens. A general note: In an ELISA, binding on a coated surface is turned into a signal by an enzyme label.
The test system of test [4] is MCF7. The test is described as follows: Potency index, ratio of latrunculin IC50 to test compound IC50 for cytotoxicity against human MCF7 cells. The test is classed as functional.
Test [5] concerns MDA-MB-231. In words: Anticancer activity against human MDA-MB-231 cells assessed as inhibition of cell growth incubated for 72 hrs by MTT assay. The test is classed as functional, cell-based. The conditions noted are these: MDA-MB-231, 72 h.
A further test is filed under the species Homo sapiens. The test is described as follows: Inhibition of actin (unknown origin) polymerization at 1 uM incubated for 20 mins in presence of ATP by ELISA analysis relative to control.
Test [6] in a line: Inhibition of actin (unknown origin) polymerization incubated for 20 mins in presence of ATP by ELISA analysis. The arrangement: species or system Homo sapiens.
The test system of test [7] is HeLa. The test is described as follows: Anticancer activity against human HeLa cells assessed as inhibition of cell growth incubated for 24 hrs by MTT assay. The test is classed as functional, cell-based.
Test [8] has as its system A549. In words: Anticancer activity against human A549 cells assessed as inhibition of cell growth incubated for 24 hrs by MTT assay. The conditions noted are these: A549, 24 h. The format is functional, cell-based.
The subject of test [9] is MCF7. The test is described as follows: Anticancer activity against human MCF7 cells assessed as inhibition of cell growth incubated for 24 hrs by MTT assay. The conditions noted are these: MCF7, 24 h. The test is classed as functional, cell-based.
Test [10] deals with HT-29. The test is described as follows: Antiproliferative activity against human HT-29 cells assessed as cell growth inhibition incubated for 72 hrs by SRB assay. The test is classed as functional, cell-based. To be noted: HT-29, 72 h. (In general: The SRB assay estimates cell density from bound dye.)
The test system of test [11] is MDA-MB-231. In words: Antiproliferative activity against human MDA-MB-231 cells assessed as cell growth inhibition incubated for 72 hrs by SRB assay. The test is classed as functional, cell-based. To be noted: MDA-MB-231, 72 h.
Test [12] deals with A549. The test is described as follows: Antiproliferative activity against human A549 cells assessed as cell growth inhibition incubated for 72 hrs by SRB assay. The test is classed as functional, cell-based. The conditions noted are these: A549, 72 h.
For test [13], the system named is L5178Y. The test is described as follows: Anticancer activity against mouse L5178Y assessed as cell growth inhibition by [3H]-thymidine assay relative to control. The format is functional.
Test [14] concerns L5178Y. The test is described as follows: Anticancer activity against mouse L5178Y assessed as cell growth inhibition by [3H]-thymidine assay. The test is classed as functional, cell-based.
Test [15] concerns HeLa. The test is described as follows: Anticancer activity against human HeLa cells assessed as inhibition of cell growth. The format is functional, cell-based.
In another test the test system is Daoy. The test is described as follows: Anticancer activity against human Daoy cells assessed as inhibition of cell growth. The test is classed as functional, cell-based.
In test [16] the test system is HepG2. In words: Anticancer activity against human HepG2 cells assessed as inhibition of cell growth incubated for 48 hrs by crystal violet staining based microplate reader analysis. The format is functional. The conditions noted are these: HepG2, 48 h.
Test [17] concerns HT-29. The test is described as follows: Anticancer activity against human HT-29 cells assessed as inhibition of cell growth. The format is functional, cell-based.
Another test has as its system P388. In words: Anticancer activity against mouse P388 cells assessed as inhibition of cell growth. The test is classed as functional, cell-based.
The test system of test [18] is A549. The test is described as follows: Anticancer activity against human A549 cells assessed as inhibition of cell growth. The format is functional, cell-based.
Test [19] relates to MCF7. In words: Anticancer activity against human MCF7 cells assessed as inhibition of cell growth. The format is functional, cell-based.
Test [20] has as its system A549. In words: Anticancer activity against human A549 cells assessed as cell growth inhibition. The test is classed as functional, cell-based.
The subject of another test is PC-3. The test is described as follows: Anticancer activity against human PC-3 cells assessed as inhibition of cell growth. The format is functional, cell-based.
Test [21] has as its system HepG2. The test is described as follows: Anticancer activity against human HepG2 cells assessed as inhibition of cell growth. The format is functional, cell-based.

As a reminder, the IC50 is the concentration that inhibits the measured activity by half. Consider `O=C1Nc2ccc(Br)cc2[C@@]1(c1cc2ccccc2[nH]1)c1c[nH]c2ccccc12`, for which the IC50 with OVCAR-3 was 7 µM; in the test on HT-29 [1], 8 µM; in the test with MM1.S it was 9 µM.
By inhibition is commonly meant how much of the control response was suppressed. Turning to `C/C1=C/C(=O)O[C@@H]2C[C@@H](CC[C@H](C)/C=C\C=C\CC1)O[C@@](OCCc1ccccc1)([C@@H]1CSC(=O)N1)C2`, the IC50 came out at 100 nM in the test on MCF7 [2], 2710 nM in the test on MDA-MB-231 [5] and 184 nM in test [6]. The inhibition was 31% in test [3] and 94% in the test listed under Homo sapiens. In addition, the “Ratio IC50” value in the test with MCF7 [4] was found to be 4.8.
As for `C#C/C=C\CCCCCCCCC#CCCC(=O)NCCc1ccccc1`, the IC50 was 4.1 µM in the test with HeLa [7], 30 µM in the test with A549 [8] and 19.4 µM in the test on MCF7 [9].
Consider `O=C(O)c1cnc(-c2c[nH]c3cc(O)ccc23)c2[nH]c3ccc(O)cc3c12`, for which the values for the IC50 in the test on HT-29 [10], with MDA-MB-231 [11] and in the test with A549 [12] were 28 µM, 25 µM and 30 µM, respectively.
Take `C#C/C=C\CCCCCCCCCCC#CCCC(=O)NCCc1ccccc1`: the IC50 turned out to be 24.2 µM with A549 [8] and 18 µM in the test with MCF7 [9].
As to `COC(=O)c1c[nH]c2ccc(O)cc12`, the “inhibition (INH)” value with L5178Y [13] was 36%. Besides, the IC50 in the test on L5178Y [14] amounted to 52 nM.
Regarding `O=C(O)CCCCCC#C/C=C/CCCCC#C/C=C/Br`, the IC50 was determined as 86.5 nM in the test on HeLa [15] and 65.8 nM in the test with Daoy.
As to `O=C1Nc2cc(Br)ccc2[C@@]1(c1cc2ccccc2[nH]1)c1c[nH]c2ccccc12`, the IC50 was found to be 9 µM in the test on OVCAR-3, 12.5 µM in the test on HT-29 [1] and 11 µM with MM1.S.
Take `CC(C)[C@]1(O)CC[C@@]2(C)C[C@](O)([C@H]3CC[C@@H]4[C@]3(C)CC[C@H]3OC(C)(C)[C@H](O)C(=O)[C@@H](O)[C@]43C)CC[C@@H]21`: in the test with HepG2 [16], the IC50 stood at 23 nM.
`COc1ccc2[nH]c3c(-c4c[nH]c5cc(O)ccc45)ncc(C(=O)O)c3c2c1`: the IC50 in the test on HT-29 [10] is 85 µM; in the test on MDA-MB-231 [11] it was 90 µM; in the test with A549 [12], 100 µM.
On to `C=C(CCC[C@@]1(C)CC[C@H]([C@@H](C)C(=O)OC)OO1)CCC1(O)C(=C)CCCC1(C)C` (some centres undefined), for which the IC50 in the test with HT-29 [17], in the test with P388 and in the test with A549 [18] was above 2.4 nM throughout.
As to `CC1=C(CC/C(C)=C/CC[C@@]2(C)CC[C@H]([C@@H](C)C(=O)O)OO2)C(C)(C)CCC1`, the figures for the IC50 with MCF7 [19], in the test on A549 [20] and in the test on PC-3 were 7 µM, 3000 nM and 8 µM, respectively.
Turning to `C#C/C=C\CCCCCCCCCCC#CCCC(=O)NCCc1c[nH]c2ccccc12`, the results for the IC50 with HeLa [7], in the test on A549 [8] and in the test with MCF7 [9] were 17.4 µM, 25.9 µM and 34.1 µM, respectively.
For `C/C1=C/C(=O)O[C@@H]2C[C@@H](CC[C@H](C)/C=C\C=C\CC1)O[C@@](O)([C@@H]1CSC(=O)N1CO)C2`, the IC50 stood at 120 nM with MCF7 [2], 2990 nM in the test with MDA-MB-231 [5] and 210 nM in [6]. The inhibition in test [3] came out at 35%; in the test filed under Homo sapiens, 90%. Also, the “Ratio IC50” value in the test on MCF7 [4] was determined as 4.
For the compound `O=C(O)CCCC#CC#C/C=C/CCCCCCC=C(Br)Br`, the IC50 in the test on HepG2 [21] turned out to be 41.2 nM; in the test with HeLa [15], 53.5 nM; with Daoy, 35.6 nM.
Regarding `C=C(CCC1=C(C)CCCC1(C)C)C(O)CC[C@@]1(C)CC[C@H]([C@@H](C)C(=O)O)OO1` (some centres undefined), the IC50 with HT-29 [17], in the test on P388 and in the test with A549 [18] was above 2.4 nM in each case.
